For data set [1], the system named is Human immunodeficiency virus 1. Description: Antiviral activity against recombinant HIV1 NLRep-Rluc harbouring polymorphic NT infected in human MT-2 cells assessed as inhibition of virus growth in presence of fetal bovine serum by measuring luciferase activity after 5 days. It counts as functional, organism-based. To be noted: Human immunodeficiency virus 1, NLRep, MT2, 120 h.

Data set [2] concerns Human immunodeficiency virus 1. Briefly: Antiviral activity against recombinant HIV1 NLRep-Rluc harbouring polymorphic NA infected in human MT-2 cells assessed as inhibition of virus growth in presence of fetal bovine serum by measuring luciferase activity after 5 days. It counts as functional, organism-based. To be noted: Human immunodeficiency virus 1, NLRep, MT2, 120 h.
For data set [3], the system named is Human immunodeficiency virus 1. Description: Anti retroviral activity against HIV-1 NL4-3 harboring at TA polymorph infected in human MT4 cells by CellTitre-Glo luminescent reagent based assay. It counts as functional, organism-based. To be noted: Human immunodeficiency virus 1, NL4-3, MT4.
Data set [4] has as its system Human immunodeficiency virus 1. Description: Anti retroviral activity against HIV-1 NL4-3 harboring at NT polymorph infected in human MT4 cells by CellTitre-Glo luminescent reagent based assay. It counts as functional, organism-based. To be noted: Human immunodeficiency virus 1, NL4-3, MT4.
Data set [5] concerns Human immunodeficiency virus 1. Description: Antiviral activity against recombinant HIV1 NLRep-Rluc harbouring polymorphic T124/T125 integrase infected in human MT-2 cells assessed as inhibition of virus growth in presence of fetal bovine serum by measuring luciferase activity after 5 days. It counts as functional, organism-based, MT2.
Data set [6] relates to Human immunodeficiency virus 1. Description: Antiviral activity against recombinant HIV1 NLRep-Rluc harbouring polymorphic AT infected in human MT-2 cells assessed as inhibition of virus growth in presence of fetal bovine serum by measuring luciferase activity after 5 days. It counts as functional, organism-based. To be noted: Human immunodeficiency virus 1, NLRep, MT2, 120 h.

For data set [7], the system named is Human immunodeficiency virus 1. Briefly: Anti retroviral activity against HIV-1 NL4-3 harboring at NA polymorph infected in human MT4 cells by CellTitre-Glo luminescent reagent based assay. It counts as functional, organism-based. To be noted: Human immunodeficiency virus 1, NL4-3, MT4.
Data set [8] concerns Human immunodeficiency virus 1. Briefly: Anti retroviral activity against HIV-1 NL4-3 harboring at TT polymorph infected in human MT4 cells by CellTitre-Glo luminescent reagent based assay. It counts as functional, organism-based. To be noted: Human immunodeficiency virus 1, NL4-3, MT4.
Data set [9] concerns Human immunodeficiency virus 1. Description: Antiviral activity against recombinant HIV1 NLRep-Rluc harbouring polymorphic AA infected in human MT-2 cells assessed as inhibition of virus growth in presence of fetal bovine serum by measuring luciferase activity after 5 days. It counts as functional, organism-based. To be noted: Human immunodeficiency virus 1, NLRep, MT2, 120 h.

In data set [10] the test system is Human immunodeficiency virus 1. Briefly: Anti retroviral activity against HIV-1 NL4-3 harboring at AT polymorph infected in human MT4 cells by CellTitre-Glo luminescent reagent based assay. It counts as functional, organism-based. To be noted: Human immunodeficiency virus 1, NL4-3, MT4.
The subject of data set [11] is Human immunodeficiency virus 1. Description: Antiviral activity against recombinant HIV1 A128T-resitant mutant […] infected in human MT-2 cells assessed as inhibition of virus growth in presence of fetal bovine serum by measuring luciferase activity after 5 days. It counts as functional, organism-based. To be noted: Human immunodeficiency virus 1, MT2, 120 h.

Data set [12] has as its system Human immunodeficiency virus 1. Description: Antiviral activity against recombinant HIV1 NLRep-Rluc harbouring polymorphic TA infected in human MT-2 cells assessed as inhibition of virus growth in presence of fetal bovine serum by measuring luciferase activity after 5 days. It counts as functional, organism-based. To be noted: Human immunodeficiency virus 1, NLRep, MT2, 120 h.

Data set [13] relates to Human immunodeficiency virus 1. Briefly: Anti retroviral activity against HIV-1 NL4-3 harboring at AA polymorph infected in human MT4 cells by CellTitre-Glo luminescent reagent based assay. It counts as functional, organism-based. To be noted: Human immunodeficiency virus 1, NL4-3, MT4.
Data set [14] can be described thus: Metabolic stability in rat liver microsome assessed half life at 0.5 uM by LC-MS/MS analysis. It counts as ADME. To be noted: liver microsomes. In general terms: Liver microsomes are a subcellular fraction often used to study metabolism.
Data set [15] can be described thus: Metabolic stability in human liver microsome assessed half life at 0.5 uM by LC-MS/MS analysis. It counts as ADME. To be noted: liver microsomes.
Data set [16] in a line: Stability in human liver microsome assessed as half life. It counts as ADME. To be noted: liver microsomes.
Data set [17] is described as follows: Clearance in Sprague-Dawley rat at 1 mg/kg, iv by LC-MS/MS analysis. It counts as ADME, organism-based. To be noted: in vivo.
A short description of data set [18]: Displacement of [3H](S)-2-(tert-butoxy)-2-(2-methyl-4-(p-tolyl)quinolin-3-yl)acetic acid from LEDGF-binding site of recombinant T124/T125 polymorphic HIV1 integrase by LIDIA assay. The arrangement: species or system Human immunodeficiency virus 1. (Loss of bound radioactivity is the signal in a displacement assay; it reports binding, not function.)
Data set [19] is described as follows: Cytotoxicity against human MT2 cells assessed as cell viability measured after 4 days by XTT assay. It counts as toxicity, cell-based. To be noted: time 4 day.
Data set [20] has as its target T1, Solute carrier organic anion transporter family member 1B1 (Homo sapiens, UniProt Q9Y6L6).
T1 sequence (Q9Y6L6 whole entry): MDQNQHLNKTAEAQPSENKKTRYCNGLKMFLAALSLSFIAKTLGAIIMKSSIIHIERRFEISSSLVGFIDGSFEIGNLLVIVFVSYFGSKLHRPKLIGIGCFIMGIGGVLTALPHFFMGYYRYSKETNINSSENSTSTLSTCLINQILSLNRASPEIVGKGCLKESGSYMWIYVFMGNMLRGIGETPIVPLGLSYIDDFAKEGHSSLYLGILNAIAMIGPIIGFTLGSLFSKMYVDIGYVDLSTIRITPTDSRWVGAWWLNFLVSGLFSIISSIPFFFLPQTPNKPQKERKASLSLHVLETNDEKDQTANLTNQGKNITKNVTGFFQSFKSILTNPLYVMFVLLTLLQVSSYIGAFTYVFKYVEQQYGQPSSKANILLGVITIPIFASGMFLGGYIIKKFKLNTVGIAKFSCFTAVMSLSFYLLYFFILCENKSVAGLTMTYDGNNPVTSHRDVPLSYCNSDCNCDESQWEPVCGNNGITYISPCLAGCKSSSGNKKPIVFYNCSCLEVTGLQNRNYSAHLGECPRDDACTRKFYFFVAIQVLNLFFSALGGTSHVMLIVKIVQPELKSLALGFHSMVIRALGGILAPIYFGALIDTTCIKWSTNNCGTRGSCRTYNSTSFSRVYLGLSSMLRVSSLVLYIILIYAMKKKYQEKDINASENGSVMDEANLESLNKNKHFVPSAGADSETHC
Briefly: Inhibition of OATP1B1 (unknown origin). It counts as ADME.

Setting [21] is: Human immunodeficiency virus 1, NLRep, MT2, 120 h.

Structures are written as SMILES.

`Cc1nc2ccccc2c(-c2ccc3c4c(ccnc24)CCO3)c1[C@H](OC(C)(C)C)C(=O)O` [BI-224436]: the EC50 in [1] is 56.3 nM; in data set [2], 49.1 nM; in [3], 32 nM; in data set [4], 32 nM; in [5] (setting [21]), 49 nM; in data set [6], 48.7 nM. Also, the half-maximal effective concentration (EC50) in data set [7] is 32 nM; in data set [8] it was 32 nM; in data set [9] it was 28.1 nM; in data set [10], 32 nM; in data set [11], over 500 nM; in data set [12], 49.5 nM. This compound also yielded an EC50 in [13] of 32 nM.
As to `Cc1nc(C)c([C@H](OC(C)(C)C)C(=O)O)c(N2CCC(C)(C)CC2)c1-c1ccc(OC2COCC2c2ccc(F)cc2)cc1` (stereo in doubt; 40b), the EC50 in data set [1] was 0.53 nM; in [2], 3.7 nM; in data set [5] (mt2), 0.6 nM; in [6] it was 1.3 nM; in data set [9], 1.7 nM; in data set [11], over 500 nM. The EC50 in data set [12] was 0.92 nM. Besides, the half-life at 0.5 µM in data set [14] is over 120 min; in data set [15], 47 min. The half-life in [16] was 47 min. The clearance in [17] turned out to be 23.4 mL/min/kg. The IC50 in data set [18] was found to be 7.9 nM.
In the case of `Cc1nc(C)c([C@H](OC(C)(C)C)C(=O)O)c(N2CCC(C)(C)CC2)c1-c1ccc(OCCc2ccc(C#N)cc2)cc1`, the cytotoxic concentration (CC50) at 96 h in data set [19] was at least 33500 nM. In data set [5] (setting [21]), the EC50 worked out at 1.5 nM. Moreover, the IC50 in data set [20] worked out at 100 nM; in data set [18], 13.3 nM.
Consider `Cc1sc(-c2ccncc2)c(C2=CCC(C)(C)CC2)c1[C@H](OC(C)(C)C)C(=O)O`, for which the EC50 in data set [3] was found to be 1600 nM; in [8], 31 nM; in [10], 14000 nM; in data set [13] it was 1500 nM.
Consider `Cc1nc(C)c([C@H](OC(C)(C)C)C(=O)O)c(N2CCC(C)(C)CC2)c1-c1ccc(OCCc2ccc(F)c(F)c2)cc1`, for which the EC50 stood at 2.1 nM in data set [1]; 7 nM in [2]; 2.7 nM in data set [5] (setting [21]); 2.7 nM in data set [6]; 3.7 nM in data set [9]; 255 nM in data set [11]. Moreover, in data set [12], the EC50 was 1.8 nM. Further, the CC50 at 96 h in [19] was at least 33500 nM. The results for the half-life at 0.5 µM in [14] and in data set [15] were 51 min and over 120 min, respectively. For the same compound, the clearance in data set [17] was determined as 5.8 mL/min/kg. Further, the IC50 in data set [18] was determined as 6.7 nM.

By EC50 is commonly meant the concentration giving half of the maximal effect. The half-life is the time needed for the level to fall by half in the phase considered. Broadly, the clearance is a measure of how efficiently the substance is removed, as volume per time. As a reminder, the IC50 is the concentration at which inhibition is half-maximal. One may read the CC50 as the concentration giving 50% cytotoxicity.

The values are drawn from ChEMBL document CHEMBL5046290, “Design, Synthesis, and Preclinical Profiling of GSK3739936 (BMS-986180), an Allosteric Inhibitor of HIV-1 Integrase with Broad-Spectrum Activity toward 124/125 Polymorphs” (J Med Chem, 2022).
